Experimental data published in ChEMBL document CHEMBL2218064, “Structure-activity relationship data for chemical series of antagonists of the P2X7 receptor (Supplementary Bioactivity Data for publication CHEMBL1157114)”.

Target: T1, P2X purinoceptor 7 (Homo sapiens, UniProt Q99572)
T1 sequence (Q99572 whole entry): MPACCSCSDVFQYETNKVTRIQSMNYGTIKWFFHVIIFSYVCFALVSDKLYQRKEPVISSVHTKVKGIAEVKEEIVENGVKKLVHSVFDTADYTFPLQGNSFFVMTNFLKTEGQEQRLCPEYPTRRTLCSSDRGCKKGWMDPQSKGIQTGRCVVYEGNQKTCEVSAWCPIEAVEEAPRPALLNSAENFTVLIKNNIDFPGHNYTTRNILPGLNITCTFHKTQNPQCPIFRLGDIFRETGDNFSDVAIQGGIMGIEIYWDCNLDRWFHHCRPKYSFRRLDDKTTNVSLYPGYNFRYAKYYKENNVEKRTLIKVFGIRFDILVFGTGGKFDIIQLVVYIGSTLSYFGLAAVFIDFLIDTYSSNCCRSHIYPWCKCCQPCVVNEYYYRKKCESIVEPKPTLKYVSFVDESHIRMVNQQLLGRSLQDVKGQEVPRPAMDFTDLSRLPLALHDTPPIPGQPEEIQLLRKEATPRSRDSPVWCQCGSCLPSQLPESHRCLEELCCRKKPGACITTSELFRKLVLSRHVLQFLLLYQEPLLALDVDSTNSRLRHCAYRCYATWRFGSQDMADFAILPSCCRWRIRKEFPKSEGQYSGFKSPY
Assay: SUPPLEMENTARY: Inhibition of human P2X7 receptor assessed as inhibition of ethidium bromide accumulation. Same assay as CHEMBL1103860

IC50	SMILES
39.8 nM	O=C1C(=O)N(c2ccccc2N2CCCC2)CCN1Cc1ccc(F)cc1Cl
2.51 nM	O=C(c1cccc(C(F)(F)F)c1Cl)N1CCn2c(nnc2-c2ccc(F)cn2)C1
63.1 nM	O=C(c1cccc(C(F)(F)F)c1Cl)N1CCN(c2ccc(F)cc2F)C(=O)C1
501 nM	Cc1ccc(N2CCN(Cc3ccc(F)cc3Cl)C(=O)C2=O)cc1C
2 nM	CN1C(=O)N(CC(F)(F)F)C[C@H]1C(=O)NCc1ccc(Cl)cc1Cl
100 nM	O=C(c1cccc(Cl)c1Cl)N1CCN(c2ccc(F)cc2)C(=O)C1
1260 nM	O=C(Cc1cnn(CCNC2CCOCC2)c1C(F)(F)F)NCc1ccc(F)cc1Cl
316 nM	O=C(NCc1cccc(C(F)(F)F)c1Cl)C1CC(=O)N(Cc2ccccc2)C1 (stereo not drawn)
631 nM	N#Cc1c(F)cccc1N1CCN(Cc2ccc(F)cc2Cl)C(=O)C1=O
794 nM	CCN1C(=O)CC[C@H]1C(=O)NCc1c(F)ccc(F)c1Cl
251 nM	CCc1ccccc1-n1cc(CC(=O)NCc2ccc(F)cc2Cl)cn1
794 nM	CN1[C@H](C(=O)NCc2ccccc2Cl)CCS1(=O)=O
200 nM	O=C(c1ccc(Cl)cc1Cl)N1CCn2c(Cl)cnc2C1
0.794 nM	CN1C[C@@H](C(=O)NCc2c(Cl)cc(Cl)cc2Cl)N(C)C1=O
6.31 nM	Cc1c(Br)cccc1N1CCN(C(=O)c2cccc(C(F)(F)F)c2Cl)CC1=O
100 nM	CC1(C(=O)NCc2ccc(Cl)cc2Cl)CCC(=O)N1C1CCC1 (stereo not drawn)
2 nM	CC(C)N1C(=O)CC[C@H]1C(=O)NCc1cccc(C(F)(F)F)c1Cl
501 nM	COc1cccc(-n2nc(C)c(CC(=O)NCc3ccc(F)cc3Cl)c2C)c1
10 nM	Cc1ccc(N2CCC(O)C2)cc1N1CCN(C(=O)c2cccc(C(F)(F)F)c2Cl)CC1=O (stereo not drawn)
316 nM	Cc1cn2c(n1)CN(C(=O)c1cccc(Cl)c1Cl)CC2
79.4 nM	O=C(c1cccc(C(F)(F)F)c1F)N1CCn2c(Br)nnc2C1
63.1 nM	O=C(c1cccc(C(F)(F)F)c1F)N1CCN(c2ccc(F)cc2Cl)C(=O)C1

IC50	SMILES
251 nM	O=C1C(=O)N(c2cccc3c2OCCO3)CCN1Cc1ccc(F)cc1Cl
50.1 nM	Cc1c(Br)cccc1N1CCN(Cc2ccc(F)cc2Cl)C(=O)C1=O
5.01 nM	CN1C(=O)N(c2cccnc2Cl)C[C@H]1C(=O)NCc1ccc(Cl)cc1Cl
25.1 nM	COc1c(N2CCOCC2)cccc1N1CCN(Cc2ccc(F)cc2Cl)C(=O)C1=O
200 nM	CN1C(=O)CC[C@H]1C(=O)NCc1cccc(F)c1C(F)(F)F
39.8 nM	Cc1cc(F)cc(C)c1N1CCN(Cc2ccc(F)cc2Cl)C(=O)C1=O
398 nM	O=C1C(=O)N(c2ccccc2)CCN1Cc1ccc(F)cc1Cl
39.8 nM	CN1C(=O)N(c2nccn2C)C[C@H]1C(=O)NCc1ccc(F)c(F)c1Cl
501 nM	O=C(NCc1ccc(Cl)cc1Cl)C1COCC(=O)N1Cc1ccccc1 (stereo not drawn)
398 nM	O=C(Cc1cnn(-c2ccc(F)cc2)c1Br)NCc1ccc(F)cc1Cl
12.6 nM	Cn1ncc(Cl)c1CC(=O)NCc1ccc(Cl)cc1Cl
200 nM	CC(C)N1[C@H](C(=O)NCc2ccc(F)cc2Cl)CCS1(=O)=O
631 nM	Cc1nn(-c2ccccc2)c(C)c1CC(=O)NCc1cc(Cl)ccc1F
794 nM	O=C(c1ccc(Cl)cc1Cl)N1CCn2cc(C(F)(F)F)nc2C1
126 nM	CN1C(=O)CC[C@H]1C(=O)NCc1cccc(Cl)c1F
398 nM	Cc1cccc(Cl)c1CNC(=O)[C@@H]1CCS(=O)(=O)N1C
631 nM	CC(C)N1[C@H](C(=O)NCc2ccc(F)cc2C(F)(F)F)CCS1(=O)=O
7.94 nM	O=C(c1cccc(C(F)(F)F)c1Cl)N1CCn2c(Br)nnc2C1
2 nM	O=C(c1cccc(C(F)(F)F)c1Cl)N1CCn2c(-c3cnccn3)cnc2C1
0.794 nM	CCN1C(=O)N(C)C[C@H]1C(=O)NCc1cccc(C(F)(F)F)c1Cl
50.1 nM	Cc1cc(F)cc(C)c1N1CCN(Cc2cccc(Cl)c2Cl)C(=O)C1=O
